Converted amounts (≈) assume the structure as drawn.

Consider seven compounds from patent US10858307B2, “Compositions and methods for treating liver cancer” (Golden Biotechnology Corporation, priority 2016, dated 2020).

The subject of test [1] is Human hepatoma cell lines (HepG2). As to the kind of experiment: MTT cell viability assay. Format: cell-based. The note with it: for IC50: Homo sapiens, HepG2 cells, 48 h exposure; for inhibition against liver cancer cells compared to Compound S: versus Compound S. The source says: The MTT (3-(4, 5-dimethylthiazol-2-yl)-2,5-diphenyl tetrazolium bromide) cell viability assay is a colorimetric assay system, which measures the reduction of a tetrazolium component (MTT) into an insoluble blue/purple colored formazan product by succinate tetrazolium reductase in mitochondria of viable cells. The absorbance of the complex is read spectrophotometrically and is directly proportional to the number of live or viable cells. Formazan formation can therefore be used to assess and determine the survival rate of cells.
Human hepatoma cell lines (HepG2) were obtained from American Type Culture Collection (Rockville, Md., USA) and cultured in Minimum Essential Medium Alpha (Invitrogen/Gibco BRL, Grand Island, N.Y., USA) at 37° C. in 5% CO2 in culture media supplemented with 10% fetal bovine serum (FBS) (Invitrogen/Gibco BRL) and 100 U/ml streptomycin and penicillin (Invitrogen/Gibco BRL).
100 μL of HepG2 cells (1×10^4 cells per well) were seeded in 96 well plates and pre-incubated. After 24 h, the cells were exposed to various concentrations of Compounds 1-11, and the known compound 4-hydroxy-2,3-dimethoxy-6-methyl-5-(3,7,11-trimethyldodeca-2,6,10-trienyl)cyclohex-2-enone (Compound S) in a volume of 200 μL for 48 h. 20 μL of MTT reagent (5 mg/mL) was added to each well and then incubated in 5% CO2 at 37° C. for 4 h. The media was replaced with 200 μL of DMSO to dissolve the MTT tetrazolium crystal. Absorbance was measured at 570 nm using a microplate reader.
A general note: Tetrazolium dyes change colour on reduction, which living cells bring about.

The next test concerns Human HCC Mahlavu cells. As to the kind of experiment: Efficacy test on liver cancer xenograft model. Format: in vivo, nude mice. How it is done:
[…] nude mice (National Laboratory Animal Center) of four to six weeks old were used and maintained in laminar flow cabinets under pathogen-free condition. Human HCC Mahlavu cells (1×10^6 cells) carrying luciferase gene were re-suspended in 20 μL of PBS containing 50% matrigel (BD Biosciences, MA) and injected into the left lateral liver lobe of athymic nude mice (National Laboratory Animal Center) with 27-gauge needle by sterile techniques (Lu et al., 2007). For bioluminescence imaging, the animals were injected with the luciferase substrate D-luciferin at a dose of 150 mg/kg in 0.2 mL sterile isotonic saline.
Tumor growth and metastatic status was monitored using the Xenogen […] (IVIS) imaging system every two weeks. All images were obtained after intraperitoneal injection of luciferin (100 mg/kg body weight; Synchem, Elk Grove Village, Ill., United States). […] Image analysis and bioluminescence quantification were performed using Living Image software (Caliper Life Sciences, Hopkinton, Mass., United States). […] The body weight was measured twice weekly.
The tumor-bearing mice were treated with vehicle (olive oil) or Compound 1 at 120 mg/kg by oral gavage twice per day and 5 days per week for 4 weeks. The tumor volume was measured twice weekly. ***P<0.005 compared to vehicle control. […]

What is called IC50 is the midpoint of a concentration-inhibition curve. Low readings indicate higher potency, high ones lower potency. In the case of `COC1=C(N)[C@@H](O)[C@@H](C/C=C(\C)CC/C=C(\C)CCC=C(C)C)[C@H](C)C1=O` [Compound 1, (4S,5S,6S)-3-amino-4-hydroxy-2-methoxy-6-methyl-5-((2E,6E)-3,7,11-trimethyldodeca-2,6,10-trien-1-yl)cyclohex-2-enone], in test [1], the IC50 turned out to be 0.13 µg/mL (≈ 0.346 µM) and the “inhibition against liver cancer cells compared to Compound S” value (from here on “inhibition … compared to Compound S”) is on record as “much better unexpected inhibition”. Also, the tumor size result in the test on Human HCC Mahlavu cells (120 mg/kg oral gavage twice per day, 5 days per week for 4 weeks, P<0.005 compared to vehicle control) is “decrease of the tumor size”. For the same compound, the “decrease of tumor mass compared with control” value with Human HCC Mahlavu cells (120 mg/kg oral gavage, at the end of week 12) was “at least 4 folds”.
For the compound `COC1=C(N(C)C)[C@@H](O)[C@@H](C/C=C(\C)CC/C=C(\C)CCC=C(C)C)[C@H](C)C1=O` [Compound 4], in test [1], the IC50 came to 0.18 µg/mL (≈ 0.446 µM) and the “inhibition … compared to Compound S” value is listed as “much better unexpected inhibition”.
`COC1=C(NCCCN)[C@@H](O)[C@@H](C/C=C(\C)CC/C=C(\C)CCC=C(C)C)[C@H](C)C1=O` [Compound 5]: in test [1], the half-inhibitory concentration (IC50) amounted to 0.87 µg/mL (≈ 2.01 µM) and the “inhibition … compared to Compound S” value is “much better unexpected inhibition”.
Compound `COC1=C(NCCO)[C@@H](O)[C@@H](C/C=C(\C)CC/C=C(\C)CCC=C(C)C)[C@H](C)C1=O` [Compound 7] showed an IC50 in test [1] of 1.95 µg/mL (≈ 4.65 µM).
Regarding `COC1=C(NCc2cccs2)[C@@H](O)[C@@H](C/C=C(\C)CC/C=C(\C)CCC=C(C)C)[C@H](C)C1=O` [Compound 10], in test [1], the midpoint of inhibition, the IC50, lay at 0.91 µg/mL (≈ 1.93 µM) and the “inhibition … compared to Compound S” value was “much better unexpected inhibition”.
In test [1], `COC1=C(NCCc2c[nH]c3ccccc23)[C@@H](O)[C@@H](C/C=C(\C)CC/C=C(\C)CCC=C(C)C)[C@H](C)C1=O` [Compound 11] came in with a 50% inhibitory concentration (IC50) of 2.29 µg/mL (≈ 4.41 µM).
On the same count and under the same terms, with `COC1=C(OC)C(O)C(CC=C(C)CCC=C(C)CCC=C(C)C)C(C)C1=O` (stereo not shown) [Compound S, 4-hydroxy-2,3-dimethoxy-6-methyl-5-(3,7,11-trimethyldodeca-2,6,10-trienyl)cyclohex-2-enone, reference compound] the figure was 2.4 µg/mL (≈ 6.14 µM).
